Drawing on PubChem BioAssay AID1259407 (Chemical Carcinogenesis Research Information System (CCRIS), 2018), this text covers mutagenic call for five compounds.

Molecules are shown by their SMILES. Active and inactive are the calls of the source. How the calls were made is not given here.

The data set concerns CCRIS mutagenicity, Ames/micronucleus/aberration tests. In words: CCRIS mutagenicity studies.
The mark [1] stands for this setting: Test System: AMES SALMONELLA TYPHIMURIUM, Strain/Indicator: TA98, Metabolic Activation: NONE, Method: STANDARD PLATE.
Setting [2] is: Test System: AMES SALMONELLA TYPHIMURIUM, Strain/Indicator: TA1535, Metabolic Activation: NONE, Method: STANDARD PLATE.
[3] abbreviates: Test System: AMES SALMONELLA TYPHIMURIUM, Strain/Indicator: TA1537, Metabolic Activation: NONE, Method: STANDARD PLATE.
Where [4] appears, read: Test System: AMES SALMONELLA TYPHIMURIUM, Strain/Indicator: TA100, Metabolic Activation: NONE, Method: STANDARD PLATE.
[5] abbreviates: Test System: AMES SALMONELLA TYPHIMURIUM, Strain/Indicator: TA1538, Metabolic Activation: NONE, Method: STANDARD PLATE.
The mark [6] stands for this setting: Test System: MOUSE LYMPHOMA, Strain/Indicator: L5178Y (TK+/TK-), Metabolic Activation: NONE, Method: SUSPENSION/PLATE.
[7] abbreviates: Test System: AMES SALMONELLA TYPHIMURIUM, Strain/Indicator: TA98, Metabolic Activation: NONE, Method: PREINCUBATION
Where [8] appears, read: Test System: AMES SALMONELLA TYPHIMURIUM, Strain/Indicator: TA100, Metabolic Activation: NONE, Method: PREINCUBATION

On to `CCOP(=S)(OCC)Oc1cnc2ccccc2n1`, for which the mutagenic call under setting [1] is “inactive; negative”; the mutagenic call (Test System: AMES SALMONELLA TYPHIMURIUM, Strain/Indicator: TA98, Metabolic Activation: S-9, NADPH GENERATING SYSTEM, Method: STANDARD PLATE) was “inactive; negative”; the mutagenic call (Test System: AMES SALMONELLA TYPHIMURIUM, Strain/Indicator: TA102, Metabolic Activation: NONE, Method: STANDARD PLATE) was “inactive; negative”; the mutagenic call (Test System: AMES SALMONELLA TYPHIMURIUM, Strain/Indicator: TA102, Metabolic Activation: S-9, NADPH GENERATING SYSTEM, Method: STANDARD PLATE) was “inactive; negative”; the mutagenic call under setting [2] is “inactive; negative”; the mutagenic call (Test System: AMES SALMONELLA TYPHIMURIUM, Strain/Indicator: TA1535, Metabolic Activation: S-9, NADPH GENERATING SYSTEM, Method: STANDARD PLATE) is “inactive; negative”. The mutagenic call under setting [3] is “inactive; negative” and the mutagenic call (Test System: AMES SALMONELLA TYPHIMURIUM, Strain/Indicator: TA1537, Metabolic Activation: S-9, NADPH GENERATING SYSTEM, Method: STANDARD PLATE) is “inactive; negative”.

`NC(=O)c1cc[n+](COC[n+]2ccccc2/C=N/O)cc1`: the mutagenic call is “inactive; negative” under setting [1]; “inactive; negative” (Test System: AMES SALMONELLA TYPHIMURIUM, Strain/Indicator: TA98, Metabolic Activation: RAT, LIVER, S-9, Method: STANDARD PLATE); “inactive; negative” under setting [4]; “inactive; negative” (Test System: AMES SALMONELLA TYPHIMURIUM, Strain/Indicator: TA100, Metabolic Activation: RAT, LIVER, S-9, Method: STANDARD PLATE); “inactive; negative” under setting [2]; “inactive; negative” (Test System: AMES SALMONELLA TYPHIMURIUM, Strain/Indicator: TA1535, Metabolic Activation: RAT, LIVER, S-9, Method: STANDARD PLATE). The mutagenic call was “inactive; negative” under setting [3]; “inactive; negative” (Test System: AMES SALMONELLA TYPHIMURIUM, Strain/Indicator: TA1537, Metabolic Activation: RAT, LIVER, S-9, Method: STANDARD PLATE); “inactive; negative” under setting [5]; “inactive; negative” (Test System: AMES SALMONELLA TYPHIMURIUM, Strain/Indicator: TA1538, Metabolic Activation: RAT, LIVER, S-9, Method: STANDARD PLATE); “inactive; negative” (Test System: CHINESE HAMSTER OVARY, Strain/Indicator: CHO-K1-BH4 (HGPRT)/6-THIOGUANINE, Metabolic Activation: NONE); “inactive; negative” (Test System: CHINESE HAMSTER OVARY, Strain/Indicator: CHO-K1-BH4 (HGPRT)/6-THIOGUANINE, Metabolic Activation: RAT, LIVER, S-9, Method: SUSPENSION/PLATE). The mutagenic call under setting [6] is “inactive; negative”.

Take `Cn1c(NO)nc2ncc(-c3ccccc3)cc21`: the mutagenic call runs as follows: (Test System: AMES SALMONELLA TYPHIMURIUM, Strain/Indicator: TA98(1,8-DNP6), Metabolic Activation: NONE, Method: STANDARD PLATE) “active; positive”; under setting [1], “active; positive”; (Test System: AMES SALMONELLA TYPHIMURIUM, Strain/Indicator: TA98, Metabolic Activation: RAT, LIVER, S-9, AROCLOR 1254, Method: STANDARD PLATE) “active; positive”.

As for `Cc1ccc(O)c(N)c1`, the mutagenic call runs as follows: (Test System: AMES SALMONELLA TYPHIMURIUM, Strain/Indicator: TA97, Metabolic Activation: HAMSTER, LIVER, S-9, AROCLOR 1254 (10%), Method: PREINCUBATION) “inactive; negative”; (Test System: AMES SALMONELLA TYPHIMURIUM, Strain/Indicator: TA97, Metabolic Activation: NONE, Method: PREINCUBATION) “active; positive”; (Test System: AMES SALMONELLA TYPHIMURIUM, Strain/Indicator: TA97, Metabolic Activation: RAT, LIVER, S-9, AROCLOR 1254 (10%), Method: PREINCUBATION) “inactive; negative”; (Test System: AMES SALMONELLA TYPHIMURIUM, Strain/Indicator: TA98, Metabolic Activation: HAMSTER LIVER S-9, AROCLOR 1254, Method: STANDARD PLATE) “inactive; negative”; (Test System: AMES SALMONELLA TYPHIMURIUM, Strain/Indicator: TA98, Metabolic Activation: HAMSTER, LIVER, S-9, AROCLOR 1254 (10%), Method: PREINCUBATION) “inactive; negative”; under setting [7], “inactive; negative”. Besides, the mutagenic call by setting is: under setting [1], “inactive; negative”; (Test System: AMES SALMONELLA TYPHIMURIUM, Strain/Indicator: TA98, Metabolic Activation: RAT LIVER S-9, AROCLOR 1254, Method: STANDARD PLATE) “inactive; negative”; (Test System: AMES SALMONELLA TYPHIMURIUM, Strain/Indicator: TA98, Metabolic Activation: RAT, LIVER, S-9, AROCLOR 1254 (10%), Method: PREINCUBATION) “inactive; negative”; (Test System: AMES SALMONELLA TYPHIMURIUM, Strain/Indicator: TA100, Metabolic Activation: HAMSTER LIVER S-9, AROCLOR 1254, Method: STANDARD PLATE) “inactive; negative”; (Test System: AMES SALMONELLA TYPHIMURIUM, Strain/Indicator: TA100, Metabolic Activation: HAMSTER, LIVER, S-9, AROCLOR 1254 (10%), Method: PREINCUBATION) “active; positive”; under setting [8], “active; positive”. The mutagenic call runs as follows: under setting [4], “inactive; negative”; (Test System: AMES SALMONELLA TYPHIMURIUM, Strain/Indicator: TA100, Metabolic Activation: RAT LIVER S-9, AROCLOR 1254, Method: STANDARD PLATE) “inactive; negative”; (Test System: AMES SALMONELLA TYPHIMURIUM, Strain/Indicator: TA100, Metabolic Activation: RAT, LIVER, S-9, AROCLOR 1254 (10%), Method: PREINCUBATION) “active; positive”; (Test System: AMES SALMONELLA TYPHIMURIUM, Strain/Indicator: TA1535, Metabolic Activation: HAMSTER LIVER S-9, AROCLOR 1254, Method: STANDARD PLATE) “inactive; negative”; (Test System: AMES SALMONELLA TYPHIMURIUM, Strain/Indicator: TA1535, Metabolic Activation: HAMSTER, LIVER, S-9, AROCLOR 1254 (10%), Method: PREINCUBATION) “inactive; negative”; (Test System: AMES SALMONELLA TYPHIMURIUM, Strain/Indicator: TA1535, Metabolic Activation: NONE, Method: PREINCUBATION) “inactive; negative”. Further, the mutagenic call is “inactive; negative” under setting [2]; “inactive; negative” (Test System: AMES SALMONELLA TYPHIMURIUM, Strain/Indicator: TA1535, Metabolic Activation: RAT LIVER S-9, AROCLOR 1254, Method: STANDARD PLATE); “inactive; negative” (Test System: AMES SALMONELLA TYPHIMURIUM, Strain/Indicator: TA1535, Metabolic Activation: RAT, LIVER, S-9, AROCLOR 1254 (10%), Method: PREINCUBATION); “inactive; negative” (Test System: AMES SALMONELLA TYPHIMURIUM, Strain/Indicator: TA1537, Metabolic Activation: HAMSTER LIVER S-9, AROCLOR 1254, Method: STANDARD PLATE); “inactive; negative” under setting [3]; “inactive; negative” (Test System: AMES SALMONELLA TYPHIMURIUM, Strain/Indicator: TA1537, Metabolic Activation: RAT LIVER S-9, AROCLOR 1254, Method: STANDARD PLATE). The mutagenic call is, setting by setting: (Test System: AMES SALMONELLA TYPHIMURIUM, Strain/Indicator: TA1538, Metabolic Activation: HAMSTER LIVER S-9, AROCLOR 1254, Method: STANDARD PLATE) “inactive; negative”; under setting [5], “inactive; negative”; (Test System: AMES SALMONELLA TYPHIMURIUM, Strain/Indicator: TA1538, Metabolic Activation: RAT LIVER S-9, AROCLOR 1254, Method: STANDARD PLATE) “inactive; negative”; under setting [6], “active; positive. reevaluation of results: positive”; (Test System: MOUSE LYMPHOMA, Strain/Indicator: L5178Y (TK+/TK-), Metabolic Activation: RAT, LIVER, S-9, AROCLOR 1254, Method: SUSPENSION/PLATE) “active; positive. reevaluation of results: positive”.

Consider `Clc1nncc2ncccc12`, for which the mutagenic call runs as follows: under setting [7], “inactive; negative”; (Test System: AMES SALMONELLA TYPHIMURIUM, Strain/Indicator: TA98, Metabolic Activation: RAT, LIVER, S-9, PCB, Method: PREINCUBATION) “inactive; negative”; under setting [8], “inactive; negative”; (Test System: AMES SALMONELLA TYPHIMURIUM, Strain/Indicator: TA100, Metabolic Activation: RAT, LIVER, S-9, PCB, Method: PREINCUBATION) “inactive; negative”.
